Test results published in PubChem BioAssay AID2060904 (Molecular Pharmacology Branch, DTP, NCI, 2025).

Test system: 349418-098-R-PDC complex spheroid viability
Test: Anticancer human tumor 349418-098-R-PDC patient-derived lung adenocarcinoma cell line growth inhibition [RAS]
Conditions: for IC50: curve of first compound; for viability, T/C: stronger effect = lower value
Text: RAS pathway inhibitors in Combinations in Complex Spheroids
A high-throughput screen of multi-cell type tumor spheroids was designed to identify active combinations of RAS pathway inhibitors and targeted small molecules. Complex spheroids include a stromal component modeled by human endothelial cells (HUVEC) and fibroblasts modeled by human mesenchymal stem cells (MSCs). The concentration ranges selected for each drug and investigational agent were based upon clinically achievable concentrations if the clinical Cmax of the agent was known.
Compounds. The drugs and investigational agents: abemaciclib (NSC768073), cobimetinib (NSC768068), divarasib (GDC6063, NSC841802), docetaxel (NSC628503), GDC-1971 (RLY-1971, NSC841576), gemcitabine (NSC613327), inavolisib (NSC800729), ipatasertib (NSC767898), KB-0742 (NSC834161), MRTX-1133 (NSC836407), osimertinib (NSC779217), RMC-4630 (NSC839698), RMC-6236 (NSC851965), RMC-6291 (NSC852671), Ro-3306 (NSC812927), sapanisertib (NSC764658), SN-38 (NSC673596), staurosporine (NSC755774), SY5609 (NSC837396), and tovorafenib (DAY101, NSC766906), were obtained from the National Cancer Institute (NCI) Developmental Therapeutics Program Chemical Repository. The FDA-approved anticancer drug set is available from the NCI Developmental Therapeutics Program. […] The stock solutions were prepared in dimethyl sulfoxide (DMSO, Sigma-Aldrich, St. Louis, MO, cat. D2650) at 800-fold the tested concentration and stored at -70 degrees C prior to their use. All drugs and investigational agents were tested over a range starting from a high concentration at or near the clinical Cmax and decreasing in half-log increments. If the clinical Cmax for an agent had not been determined, the highest concentration tested was 10 microM.
Cell Culture. All cells were maintained in an incubator at 37 degrees C and 5% CO2 with 95% humidity. The PDC lines were cultured according to standard operating procedures established by the NCI PDMR. All PDCs were thawed and cultured in Matrigel-coated flasks prepared with a working solution of 1X Ham's F-12 nutrient mix, without supplementation (Invitrogen, Waltham, MA, cat. 11765054), 100 U/mL penicillin-streptomycin (Invitrogen, cat. 15140122), and 2.5% Matrigel (Corning Inc., Corning, NY, cat. 354248) for the first three passages. The 362531-283-R-J2-PDC and 782815-120-R-J1-PDC lines were cultured in 6C/Colon 1B media, which includes advanced DMEM/F-12 (Thermo Fisher Scientific, cat. 12634028), 10 mM HEPES (Thermo Fisher Scientific, cat. 15630080), 1X GlutaMAX supplement (Thermo Fisher Scientific, cat. 35050061), 0.1 mg/mL primocin (InvivoGen, San Diego, CA, cat. ant-pm-2), 10% defined fetal bovine serum, heat inactivated (HyClone Laboratories Inc., Logan, UT, cat. SH30070.03HI), 50% L-WRN conditioned media (ATCC, cat. CRL-3276), 1.25 mM N-Acetyl-L-cysteine (Sigma-Aldrich, cat. A9165), 10 mM nicotinamide (Sigma-Aldrich, cat. N0636), 1X B-27 supplement (Thermo Fisher Scientific, cat. 17504044), 1X N-2 supplement (Thermo Fisher Scientific, cat. 17502048), 50 ng/mL human EGF (Thermo Fisher Scientific, cat. PHG0311), and 10 microM Y-27632 dihydrochloride (Tocris Bioscience, cat. 1254). The K12877-001-R-J1-PDC line was cultured in 6I media, which includes all 6C/Colon 1B media plus 10 ng/mL human FGF-10 (PeproTech, cat. 100-26), 1 ng/mL human FGF-2 (PeproTech, cat. 100-18B), 1 µM prostaglandin E2 (Tocris Bioscience, cat. 2296), […] hydrocortisone (Sigma-Aldrich, cat. H4001), and […] bovine insulin (Sigma-Aldrich, cat. I6634). The K86415-001-R-J1-PDC line was cultured in 6D media, which includes all 6C/Colon 1B media components minus the L-WRN conditioned media. The 485176-168-R4-J1-PDC was cultured in PANC media, which includes all 6C/Colon 1B media plus 100 ng/mL human FGF-10 (PeproTech, cat. 100-26), 500 nM SB-431542 (Selleckchem, cat. S1067), and 10 nM gastrin (Tocris Bioscience, cat. 3006). […]

[1] = second compound 0.0316 µM, first compound 0.0316 µM
[2] = second compound 0.0316 µM, first compound 0.1 µM
[3] = second compound 0.0316 µM, first compound 0.316 µM
[4] = second compound 0.0316 µM, first compound 1 µM
[5] = second compound 0.1 µM, first compound 0.0316 µM
[6] = second compound 0.1 µM, first compound 0.1 µM
[7] = second compound 0.1 µM, first compound 0.316 µM
[8] = second compound 0.1 µM, first compound 1 µM
[9] = second compound 0.316 µM, first compound 0.0316 µM
[10] = second compound 0.316 µM, first compound 0.1 µM
[11] = second compound 0.316 µM, first compound 0.316 µM
[12] = second compound 0.316 µM, first compound 1 µM
[13] = second compound 1 µM, first compound 0.0316 µM
[14] = second compound 1 µM, first compound 0.1 µM
[15] = second compound 1 µM, first compound 0.316 µM
[16] = second compound 1 µM, first compound 1 µM
[17] = second compound 3.16 µM, first compound 0.0316 µM
[18] = second compound 3.16 µM, first compound 0.1 µM
[19] = second compound 3.16 µM, first compound 0.316 µM
[20] = second compound 3.16 µM, first compound 1 µM
[21] = second compound 10 µM, first compound 0.0316 µM
[22] = second compound 10 µM, first compound 0.1 µM
[23] = second compound 10 µM, first compound 0.316 µM
[24] = second compound 10 µM, first compound 1 µM
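Note: spheroids exposed to compound for seven days before viability readout.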

SMILES: CC(=O)OC12COC1CC(O)C1(C)C(=O)C(O)C3=C(C)C(OC(=O)C(O)C(NC(=O)OC(C)(C)C)c4ccccc4)CC(O)(C(OC(=O)c4ccccc4)C21)C3(C)C (centres undefined) + C#Cc1c(F)ccc2cc(O)cc(-c3ncc4c(N5CC6CCC(C5)N6)nc(OCC56CCCN5CC(F)C6)nc4c3F)c12
- IC50 (second compound 0.0316 µM): < 31.6 nM
- IC50 (second compound 0.1 µM): < 31.6 nM
- IC50 (second compound 0.316 µM): < 31.6 nM
- IC50 (second compound 1 µM): < 31.6 nM
- IC50 (second compound 3.16 µM): < 31.6 nM
- IC50 (second compound 10 µM): < 31.6 nM
- viability, T/C [1]: 16.5%
- viability, T/C [2]: 15.4%
- viability, T/C [3]: 21.2%
- viability, T/C [4]: 19.1%
- viability, T/C (second compound 0.0316 µM, first compound 3.16 µM): 19.9%
- viability, T/C (second compound 0.0316 µM, first compound 10 µM): 22.4%
- viability, T/C [5]: 16.3%
- viability, T/C [6]: 23.3%
- viability, T/C [7]: 19.9%
- viability, T/C [8]: 18.4%
- viability, T/C (second compound 0.1 µM, first compound 3.16 µM): 24.4%
- viability, T/C (second compound 0.1 µM, first compound 10 µM): 27%
- viability, T/C [9]: 16.1%
- viability, T/C [10]: 19.1%
- viability, T/C [11]: 26%
- viability, T/C [12]: 21.1%
- viability, T/C (second compound 0.316 µM, first compound 3.16 µM): 23.3%
- viability, T/C (second compound 0.316 µM, first compound 10 µM): 24.5%
- viability, T/C [13]: 16.8%
- viability, T/C [14]: 16.6%
- viability, T/C [15]: 21.4%
- viability, T/C [16]: 18.2%
- viability, T/C (second compound 1 µM, first compound 3.16 µM): 19.1%
- viability, T/C (second compound 1 µM, first compound 10 µM): 24.4%
- viability, T/C [17]: 13.2%
- viability, T/C [18]: 17.9%
- viability, T/C [19]: 17.5%
- viability, T/C [20]: 24.6%
- viability, T/C (second compound 3.16 µM, first compound 3.16 µM): 31.2%
- viability, T/C (second compound 3.16 µM, first compound 10 µM): 23.4%
- viability, T/C [21]: 7.77%
- viability, T/C [22]: 5.42%
- viability, T/C [23]: 9.77%
- viability, T/C [24]: 6.32%
- viability, T/C (second compound 10 µM, first compound 3.16 µM): 7.62%
- viability, T/C (second compound 10 µM, first compound 10 µM): 5.03%

SMILES: Nc1ccn(C2OC(CO)C(O)C2(F)F)c(=O)n1 (centres undefined) + C#Cc1c(F)ccc2cc(O)cc(-c3ncc4c(N5CC6CCC(C5)N6)nc(OCC56CCCN5CC(F)C6)nc4c3F)c12
- IC50 (second compound 0.0316 µM): < 3.16 nM
- IC50 (second compound 0.1 µM): < 3.16 nM
- IC50 (second compound 0.316 µM): < 3.16 nM
- IC50 (second compound 1 µM): < 3.16 nM
- IC50 (second compound 3.16 µM): < 3.16 nM
- IC50 (second compound 10 µM): < 3.16 nM
- viability, T/C (second compound 0.0316 µM, first compound 0.00316 µM): 22.7%
- viability, T/C (second compound 0.0316 µM, first compound 0.01 µM): 7.34%
- viability, T/C [1]: 6.68%
- viability, T/C [2]: 6.34%
- viability, T/C [3]: 4.77%
- viability, T/C [4]: 5.69%
- viability, T/C (second compound 0.1 µM, first compound 0.00316 µM): 22.5%
- viability, T/C (second compound 0.1 µM, first compound 0.01 µM): 6.75%
- viability, T/C [5]: 6.72%
- viability, T/C [6]: 5.71%
- viability, T/C [7]: 5.49%
- viability, T/C [8]: 4.87%
- viability, T/C (second compound 0.316 µM, first compound 0.00316 µM): 22.3%
- viability, T/C (second compound 0.316 µM, first compound 0.01 µM): 7.7%
- viability, T/C [9]: 6.8%
- viability, T/C [10]: 6.21%
- viability, T/C [11]: 6.34%
- viability, T/C [12]: 5.58%
- viability, T/C (second compound 1 µM, first compound 0.00316 µM): 21.2%
- viability, T/C (second compound 1 µM, first compound 0.01 µM): 7.84%
- viability, T/C [13]: 5.78%
- viability, T/C [14]: 6.95%
- viability, T/C [15]: 6.05%
- viability, T/C [16]: 5.2%
- viability, T/C (second compound 3.16 µM, first compound 0.00316 µM): 18.1%
- viability, T/C (second compound 3.16 µM, first compound 0.01 µM): 9.18%
- viability, T/C [17]: 6.71%
- viability, T/C [18]: 7.51%
- viability, T/C [19]: 7.89%
- viability, T/C [20]: 6.18%
- viability, T/C (second compound 10 µM, first compound 0.00316 µM): 16%
- viability, T/C (second compound 10 µM, first compound 0.01 µM): 3.49%
- viability, T/C [21]: 5.23%
- viability, T/C [22]: 3.11%
- viability, T/C [23]: 5.48%
- viability, T/C [24]: 4.28%
